The values that follow come from ChEMBL document CHEMBL3994639, “Identification of novel ROS inducer by merging the fragments of piperlongumine and dicoumarol” (Bioorg Med Chem Lett, 2017).

pIC50: −log10 of the molar value. In brackets after ≈: the same amount, converted by molar mass. Activity calls are given as the source filed them. The calls are words filed in the database; no cut-off is given here. Some results are limits rather than exact numbers.

In data set [1] the test system is A549. Briefly: Cytotoxicity against human A549 cells assessed as growth inhibition after 72 hrs by MTT assay. The format is functional, cell-based. The conditions noted are these: A549, 72 h.
Data set [2] deals with HCT-116. Briefly: Cytotoxicity against human HCT116 cells assessed as growth inhibition after 72 hrs by MTT assay. The conditions noted are these: HCT-116, 72 h. It counts as functional, cell-based.
Data set [3] has as its system HepG2. The data set can be described thus: Cytotoxicity against human HepG2 cells assessed as growth inhibition after 72 hrs by MTT assay. The conditions noted are these: HepG2, 72 h. It counts as functional, cell-based. In general terms: Tetrazolium dyes change colour on reduction, which living cells bring about.
Data set [4] has as its system MRC5. Briefly: Cytotoxicity against human MRC5 cells after 72 hrs by MTT assay. It counts as cell-based. Conditions: MRC5, 72 h.
Data set [5] is described as follows: Permeability of the compound at pH 7.4. The format is physicochemical. The conditions noted are these: not told, read-out: permeability.
For data set [6], the system named is A549. The data set can be described thus: Induction of apoptosis in human A549 cells assessed as nuclei condensation after 24 hrs by DAPI staining based immunofluorescence microscopic analysis. The format is functional, cell-based.
A short description of data set [7]: Intrinsic solubility of the compound. The format is physicochemical. Conditions: read-out: Intrinsic_solubility.
In data set [8] the test system is A549. Briefly: Antitumor activity in human A549 cells xenografted in athymic nude mouse assessed as tumor growth inhibition at 5 mg/kg, ip administered every other day for 21 days. It counts as functional. Conditions: 504 h, read-out: TGI. On the technique in general: Xenograft models place foreign cells or tissue in a host animal.
For data set [9], the system named is Mus musculus. Briefly: Toxicity in human A549 cells xenografted athymic nude mouse assessed as body weight loss at 5 mg/kg, ip administered every other day for 21 days. Conditions: in vivo, 504 h. The format is organism-based.
The nature of data set [10]: Lipophilicity, log D of compound at pH 7.4. It counts as physicochemical. Conditions: buffer.

`O=C1CCCCN1C(=O)CCc1c(O)c2ccccc2oc1=O`: the pIC50 (usually −log10 of the IC50, conventionally taken in molar units) in [1] was under 4.05; in [2], under 4.05; in data set [3], under 4.05; in data set [4] it was 4.24.

In the case of `O=C1C=CCCN1C(=O)/C=C/c1c(O)c2ccccc2oc1=O`, the pIC50 in data set [1] was 4.92; in [2], 4.82; in data set [3] it was 5.17; in [4], 4.66.

Take `Cc1cc2oc(=O)c(/C=C/C(=O)N3CCC=CC3=O)c(O)c2cc1C`: the negative-log IC50 (pIC50) in data set [1] was 4.82; in data set [2], 5.29; in [3] it was 5.11; in data set [4] it was 4.46.

`O=C1C=CCCN1C(=O)/C=C/c1c(O)c2ccc(Cl)cc2oc1=O`: the pIC50 is 5.19 in data set [1], 4.92 in [2], 4.82 in data set [3] and 4.72 in data set [4].

Regarding `O=C1C=CCCN1C(=O)/C=C/c1c(O)c2ccc(F)cc2oc1=O`, the pIC50 in data set [1] is 4.74; in [2], 4.96; in data set [3], 5.01; in data set [4] it was 5.05.

As to `CC(C(=O)O)c1cccc(C(=O)c2ccccc2)c1` (configuration not stated) [KETOPROFEN], the Papp in [5] amounted to 19.8 nm/s.

Take `COc1ccc2oc(=O)c(/C=C/C(=O)N3CCC=CC3=O)c(O)c2c1`: the pIC50 was 5.01 in [1], 5.00 in [2], 5.15 in [3] and 4.28 in data set [4].

`COc1ccc2c(O)c(/C=C/C(=O)N3CCC=CC3=O)c(=O)oc2c1`: the negative-log IC50 (pIC50) in [1] is 4.96; in data set [2], 4.74; in data set [3], 4.92; in [4] it was 4.51.

On to `COc1cc2c(O)c(/C=C/C(=O)N3CCC=CC3=O)c(=O)oc2c(OC)c1OC`, for which the pIC50 in data set [1] is 5.38; in [2], 5.49; in [3], 5.24; in data set [4], 4.24. Further, the outcome in data set [6] was Active. Further, the solubility in data set [7] is 0.316 mg/mL (≈ 787 µM). Also, the Papp in [5] came to 202 nm/s. Moreover, in [8], the inhibition in vivo at 5 mg/kg stood at 48.5%. The Activity entry in data set [9] is “Non-Toxic”.

Turning to `CC(C)NCC(O)COc1cccc2ccccc12` (configuration not stated) [PROPRANOLOL], in [5], the Papp was determined as 1170 nm/s.

In the case of `COc1cc(/C=C/C(=O)N2CCC=CC2=O)cc(OC)c1OC` [PIPLARTINE], the pIC50 in data set [1] was 5.00; in data set [2], 5.04; in data set [3], 5.05; in [4] it was 4.43. Further, the pH-dependent lipophilicity (logD) (in general, the decadic logarithm of the distribution of all forms, ionised or not, between an organic phase and buffer at a given pH) in data set [10] is 2.84. Also, the solubility in data set [7] came out at 0.00075 mg/mL (≈ 2.36 µM). In addition, the Papp in data set [5] stood at 246 nm/s. The inhibition in vivo at 5 mg/kg in data set [8] stood at 41.2%.
